Source: ChEMBL document CHEMBL3621100, “Discovery of Novel Class I Histone Deacetylase Inhibitors with Promising in Vitro and in Vivo Antitumor Activities” (J Med Chem, 2015)

Legend:
[1] = Antiproliferative activity against human HLF cells after 72 hrs by CCK8 assay; type: cell-based
[2] = biological target: Histone deacetylase 5 (Homo sapiens, UniProt Q9UQL6); experiment: Inhibition of recombinant human HDAC5 after 60 mins by fluorescence assay
[3] = biological target: Histone deacetylase 1 (Homo sapiens, UniProt Q13547); experiment: Inhibition of recombinant human HDAC1 after 60 mins by fluorescence assay
[4] = biological target: Histone deacetylase 4 (Homo sapiens, UniProt P56524); experiment: Inhibition of recombinant human HDAC4 after 60 mins by fluorescence assay
[5] = biological target: Histone deacetylase 9 (Homo sapiens, UniProt Q9UKV0); experiment: Inhibition of recombinant human HDAC9 after 60 mins by fluorescence assay
[6] = biological target: T1, Histone deacetylase 11 (Homo sapiens, UniProt Q96DB2); experiment: Inhibition of recombinant human HDAC11 after 60 mins by fluorescence assay
T1 sequence (Q96DB2 whole entry): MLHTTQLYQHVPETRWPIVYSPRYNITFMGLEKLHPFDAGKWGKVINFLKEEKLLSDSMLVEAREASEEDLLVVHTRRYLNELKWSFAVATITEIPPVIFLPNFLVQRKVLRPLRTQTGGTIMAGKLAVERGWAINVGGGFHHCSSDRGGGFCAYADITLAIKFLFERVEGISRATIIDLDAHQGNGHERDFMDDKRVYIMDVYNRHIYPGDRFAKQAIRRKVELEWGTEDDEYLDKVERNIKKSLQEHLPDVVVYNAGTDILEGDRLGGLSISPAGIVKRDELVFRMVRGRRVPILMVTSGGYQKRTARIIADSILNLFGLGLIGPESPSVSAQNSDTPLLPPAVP

[7] = biological target: T2, Histone deacetylase 7 (Homo sapiens, UniProt Q8WUI4); experiment: Inhibition of recombinant human HDAC7 after 60 mins by fluorescence assay
T2 sequence (Q8WUI4 whole entry): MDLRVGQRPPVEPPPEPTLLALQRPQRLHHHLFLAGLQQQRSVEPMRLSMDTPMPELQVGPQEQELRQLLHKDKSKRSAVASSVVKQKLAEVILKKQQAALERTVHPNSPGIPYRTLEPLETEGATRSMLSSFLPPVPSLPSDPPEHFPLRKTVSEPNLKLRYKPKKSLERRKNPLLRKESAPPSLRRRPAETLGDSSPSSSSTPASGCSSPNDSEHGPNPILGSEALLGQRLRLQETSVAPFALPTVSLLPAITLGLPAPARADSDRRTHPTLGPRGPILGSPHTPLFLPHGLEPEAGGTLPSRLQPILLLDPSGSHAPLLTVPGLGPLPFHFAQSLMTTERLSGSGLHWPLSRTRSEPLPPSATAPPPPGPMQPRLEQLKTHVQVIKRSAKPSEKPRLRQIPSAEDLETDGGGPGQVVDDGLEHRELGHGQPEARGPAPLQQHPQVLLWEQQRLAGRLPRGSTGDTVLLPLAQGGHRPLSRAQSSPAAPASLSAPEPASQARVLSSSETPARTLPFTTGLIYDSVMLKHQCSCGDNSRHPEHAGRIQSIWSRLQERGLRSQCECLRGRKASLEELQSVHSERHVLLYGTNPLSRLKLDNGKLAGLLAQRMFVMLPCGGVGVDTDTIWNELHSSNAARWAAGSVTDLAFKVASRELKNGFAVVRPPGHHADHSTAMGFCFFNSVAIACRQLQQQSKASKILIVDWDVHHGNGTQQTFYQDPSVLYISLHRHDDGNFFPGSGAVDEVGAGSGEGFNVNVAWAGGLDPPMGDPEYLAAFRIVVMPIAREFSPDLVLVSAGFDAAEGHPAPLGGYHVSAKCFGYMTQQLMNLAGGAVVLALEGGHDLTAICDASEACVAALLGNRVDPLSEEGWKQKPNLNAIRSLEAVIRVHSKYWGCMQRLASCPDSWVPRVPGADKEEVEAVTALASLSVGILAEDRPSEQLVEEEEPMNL

[8] = Antiproliferative activity against human WI38 cells after 72 hrs by CCK8 assay; type: cell-based, WI-38
[9] = biological target: T3, Polyamine deacetylase HDAC10 (Homo sapiens, UniProt Q969S8); experiment: Inhibition of recombinant human HDAC10 after 60 mins by fluorescence assay
T3 sequence (Q969S8 whole entry): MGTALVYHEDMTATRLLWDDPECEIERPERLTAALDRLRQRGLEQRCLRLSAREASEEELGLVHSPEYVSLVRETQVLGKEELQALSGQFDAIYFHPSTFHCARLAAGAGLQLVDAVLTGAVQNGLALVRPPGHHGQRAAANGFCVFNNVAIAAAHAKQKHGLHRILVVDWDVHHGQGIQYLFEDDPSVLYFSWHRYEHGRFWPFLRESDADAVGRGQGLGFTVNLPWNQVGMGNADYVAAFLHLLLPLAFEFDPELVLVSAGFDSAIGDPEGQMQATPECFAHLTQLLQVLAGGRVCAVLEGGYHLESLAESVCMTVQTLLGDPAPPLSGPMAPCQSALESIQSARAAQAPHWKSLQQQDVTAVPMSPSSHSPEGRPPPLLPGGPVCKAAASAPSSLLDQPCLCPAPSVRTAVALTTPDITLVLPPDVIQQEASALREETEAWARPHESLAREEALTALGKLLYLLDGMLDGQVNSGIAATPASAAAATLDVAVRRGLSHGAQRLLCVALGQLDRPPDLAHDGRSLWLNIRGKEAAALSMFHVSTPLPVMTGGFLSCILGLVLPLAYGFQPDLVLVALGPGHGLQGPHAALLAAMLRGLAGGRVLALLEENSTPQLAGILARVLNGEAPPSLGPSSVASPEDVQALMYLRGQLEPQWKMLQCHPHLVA

[10] = tested on: DU-145; experiment: Antiproliferative activity against human DU145 cells after 72 hrs by CCK8 assay; type: functional
[11] = biological target: T4, Histone deacetylase 8 (Homo sapiens, UniProt Q9BY41); experiment: Inhibition of recombinant human HDAC8 after 60 mins by fluorescence assay
T4 sequence (Q9BY41 whole entry): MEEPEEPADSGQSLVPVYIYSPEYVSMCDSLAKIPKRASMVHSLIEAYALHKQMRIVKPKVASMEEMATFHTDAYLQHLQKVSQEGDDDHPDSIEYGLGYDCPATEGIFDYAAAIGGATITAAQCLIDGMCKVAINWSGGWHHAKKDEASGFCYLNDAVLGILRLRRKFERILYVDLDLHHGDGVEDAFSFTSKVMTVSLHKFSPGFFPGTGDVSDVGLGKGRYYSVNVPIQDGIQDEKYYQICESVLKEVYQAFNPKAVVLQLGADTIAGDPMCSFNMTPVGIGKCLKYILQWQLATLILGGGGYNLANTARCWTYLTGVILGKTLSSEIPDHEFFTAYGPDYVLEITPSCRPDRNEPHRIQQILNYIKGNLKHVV

[12] = Antiproliferative activity against human MOLT4 cells after 72 hrs by CCK8 assay; type: functional, MOLT-4
[13] = tested on: U-937; experiment: Antiproliferative activity against human U937 cells after 72 hrs by CCK8 assay; type: functional
[14] = biological target: Histone deacetylase 2 (Homo sapiens, UniProt Q92769); experiment: Inhibition of recombinant human HDAC2 after 60 mins by fluorescence assay
[15] = biological target: T5, Protein deacetylase HDAC6 (Homo sapiens, UniProt Q9UBN7); experiment: Inhibition of recombinant human HDAC6 after 60 mins by fluorescence assay
T5 sequence (Q9UBN7 whole entry): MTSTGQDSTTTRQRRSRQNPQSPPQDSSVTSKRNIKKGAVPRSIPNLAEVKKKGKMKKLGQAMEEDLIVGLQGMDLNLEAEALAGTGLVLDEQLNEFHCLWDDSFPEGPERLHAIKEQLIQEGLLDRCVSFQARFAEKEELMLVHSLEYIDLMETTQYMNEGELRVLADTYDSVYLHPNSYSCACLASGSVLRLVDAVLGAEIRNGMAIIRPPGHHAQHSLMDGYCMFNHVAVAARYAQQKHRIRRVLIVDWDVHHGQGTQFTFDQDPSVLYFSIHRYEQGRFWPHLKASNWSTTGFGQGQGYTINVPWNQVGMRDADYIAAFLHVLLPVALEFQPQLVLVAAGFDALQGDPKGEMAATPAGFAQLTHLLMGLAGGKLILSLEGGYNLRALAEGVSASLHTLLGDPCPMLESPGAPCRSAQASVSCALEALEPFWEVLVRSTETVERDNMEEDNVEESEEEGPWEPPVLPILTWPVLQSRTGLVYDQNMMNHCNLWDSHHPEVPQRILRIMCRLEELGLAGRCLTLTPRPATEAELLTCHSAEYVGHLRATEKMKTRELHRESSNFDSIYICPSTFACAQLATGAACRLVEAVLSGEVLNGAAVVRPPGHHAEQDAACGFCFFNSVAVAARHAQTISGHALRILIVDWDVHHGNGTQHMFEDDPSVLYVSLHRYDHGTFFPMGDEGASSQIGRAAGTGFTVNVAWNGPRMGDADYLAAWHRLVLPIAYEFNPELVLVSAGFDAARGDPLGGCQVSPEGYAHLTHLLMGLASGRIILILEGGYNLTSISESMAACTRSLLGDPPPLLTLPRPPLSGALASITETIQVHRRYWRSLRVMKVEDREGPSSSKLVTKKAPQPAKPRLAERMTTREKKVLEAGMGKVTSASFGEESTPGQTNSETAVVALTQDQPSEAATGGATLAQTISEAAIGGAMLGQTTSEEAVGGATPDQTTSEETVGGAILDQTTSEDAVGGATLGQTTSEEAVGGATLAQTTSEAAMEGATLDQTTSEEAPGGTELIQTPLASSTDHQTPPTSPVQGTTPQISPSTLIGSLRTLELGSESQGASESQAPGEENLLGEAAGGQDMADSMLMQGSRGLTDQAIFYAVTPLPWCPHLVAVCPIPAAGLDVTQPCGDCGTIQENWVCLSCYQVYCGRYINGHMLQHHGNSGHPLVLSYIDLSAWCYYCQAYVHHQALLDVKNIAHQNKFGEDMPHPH

Chain of Histone deacetylase 5 (Q9UQL6 whole entry): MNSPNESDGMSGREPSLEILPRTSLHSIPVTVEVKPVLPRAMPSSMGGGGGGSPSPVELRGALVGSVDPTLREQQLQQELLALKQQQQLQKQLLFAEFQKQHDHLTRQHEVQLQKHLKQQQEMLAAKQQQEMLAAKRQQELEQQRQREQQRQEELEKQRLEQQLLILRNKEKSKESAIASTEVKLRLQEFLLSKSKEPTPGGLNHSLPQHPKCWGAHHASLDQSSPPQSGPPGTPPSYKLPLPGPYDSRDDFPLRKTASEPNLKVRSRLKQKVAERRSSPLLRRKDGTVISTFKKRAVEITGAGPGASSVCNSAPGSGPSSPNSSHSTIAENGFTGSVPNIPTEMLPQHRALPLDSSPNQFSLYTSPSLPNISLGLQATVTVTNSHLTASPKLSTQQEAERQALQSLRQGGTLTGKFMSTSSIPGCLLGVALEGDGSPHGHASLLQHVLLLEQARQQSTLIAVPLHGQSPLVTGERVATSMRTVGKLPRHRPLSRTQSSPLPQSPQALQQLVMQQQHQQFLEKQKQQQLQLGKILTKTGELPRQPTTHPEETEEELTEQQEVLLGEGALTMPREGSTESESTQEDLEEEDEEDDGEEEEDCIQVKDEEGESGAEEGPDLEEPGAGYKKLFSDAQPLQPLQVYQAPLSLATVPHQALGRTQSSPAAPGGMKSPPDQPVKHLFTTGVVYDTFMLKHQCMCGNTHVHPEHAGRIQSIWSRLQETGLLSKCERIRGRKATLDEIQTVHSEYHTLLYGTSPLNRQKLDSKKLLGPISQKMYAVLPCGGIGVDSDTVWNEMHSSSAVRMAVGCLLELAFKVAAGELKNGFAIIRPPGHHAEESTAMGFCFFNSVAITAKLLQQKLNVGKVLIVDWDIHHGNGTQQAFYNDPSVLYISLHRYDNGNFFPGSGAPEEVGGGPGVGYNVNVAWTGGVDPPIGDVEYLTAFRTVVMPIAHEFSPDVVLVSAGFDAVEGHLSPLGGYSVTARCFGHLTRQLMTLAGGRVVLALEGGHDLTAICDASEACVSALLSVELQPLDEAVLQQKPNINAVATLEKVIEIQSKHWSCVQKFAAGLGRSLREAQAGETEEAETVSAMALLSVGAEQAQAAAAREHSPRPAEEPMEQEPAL
Chain of Histone deacetylase 9 (Q9UKV0 whole entry): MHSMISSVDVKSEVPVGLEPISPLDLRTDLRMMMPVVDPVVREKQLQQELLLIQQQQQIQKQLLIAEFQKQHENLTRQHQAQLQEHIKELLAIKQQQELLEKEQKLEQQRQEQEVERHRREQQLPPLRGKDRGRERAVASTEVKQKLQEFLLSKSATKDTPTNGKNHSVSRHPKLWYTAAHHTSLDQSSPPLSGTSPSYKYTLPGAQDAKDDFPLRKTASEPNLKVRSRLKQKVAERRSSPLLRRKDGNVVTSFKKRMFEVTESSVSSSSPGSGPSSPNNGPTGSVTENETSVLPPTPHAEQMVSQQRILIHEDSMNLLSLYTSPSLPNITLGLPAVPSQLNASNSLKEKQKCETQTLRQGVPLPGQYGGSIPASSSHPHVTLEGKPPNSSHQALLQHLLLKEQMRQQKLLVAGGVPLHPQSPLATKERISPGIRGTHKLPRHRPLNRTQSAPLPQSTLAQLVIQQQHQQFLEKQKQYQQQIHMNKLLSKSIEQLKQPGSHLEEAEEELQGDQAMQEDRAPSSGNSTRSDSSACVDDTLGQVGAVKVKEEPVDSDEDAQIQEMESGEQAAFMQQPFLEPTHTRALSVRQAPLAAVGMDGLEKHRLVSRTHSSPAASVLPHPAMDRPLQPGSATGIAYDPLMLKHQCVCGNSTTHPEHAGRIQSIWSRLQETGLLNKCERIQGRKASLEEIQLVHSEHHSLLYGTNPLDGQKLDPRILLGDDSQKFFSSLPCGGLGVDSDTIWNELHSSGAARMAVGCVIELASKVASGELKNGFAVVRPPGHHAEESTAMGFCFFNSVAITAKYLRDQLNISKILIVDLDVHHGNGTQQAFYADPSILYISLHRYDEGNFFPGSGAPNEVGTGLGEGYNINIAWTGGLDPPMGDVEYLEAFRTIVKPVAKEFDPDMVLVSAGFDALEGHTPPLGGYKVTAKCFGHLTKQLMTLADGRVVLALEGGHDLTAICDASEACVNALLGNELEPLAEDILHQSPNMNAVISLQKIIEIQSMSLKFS
Chain of Histone deacetylase 4 (P56524 whole entry): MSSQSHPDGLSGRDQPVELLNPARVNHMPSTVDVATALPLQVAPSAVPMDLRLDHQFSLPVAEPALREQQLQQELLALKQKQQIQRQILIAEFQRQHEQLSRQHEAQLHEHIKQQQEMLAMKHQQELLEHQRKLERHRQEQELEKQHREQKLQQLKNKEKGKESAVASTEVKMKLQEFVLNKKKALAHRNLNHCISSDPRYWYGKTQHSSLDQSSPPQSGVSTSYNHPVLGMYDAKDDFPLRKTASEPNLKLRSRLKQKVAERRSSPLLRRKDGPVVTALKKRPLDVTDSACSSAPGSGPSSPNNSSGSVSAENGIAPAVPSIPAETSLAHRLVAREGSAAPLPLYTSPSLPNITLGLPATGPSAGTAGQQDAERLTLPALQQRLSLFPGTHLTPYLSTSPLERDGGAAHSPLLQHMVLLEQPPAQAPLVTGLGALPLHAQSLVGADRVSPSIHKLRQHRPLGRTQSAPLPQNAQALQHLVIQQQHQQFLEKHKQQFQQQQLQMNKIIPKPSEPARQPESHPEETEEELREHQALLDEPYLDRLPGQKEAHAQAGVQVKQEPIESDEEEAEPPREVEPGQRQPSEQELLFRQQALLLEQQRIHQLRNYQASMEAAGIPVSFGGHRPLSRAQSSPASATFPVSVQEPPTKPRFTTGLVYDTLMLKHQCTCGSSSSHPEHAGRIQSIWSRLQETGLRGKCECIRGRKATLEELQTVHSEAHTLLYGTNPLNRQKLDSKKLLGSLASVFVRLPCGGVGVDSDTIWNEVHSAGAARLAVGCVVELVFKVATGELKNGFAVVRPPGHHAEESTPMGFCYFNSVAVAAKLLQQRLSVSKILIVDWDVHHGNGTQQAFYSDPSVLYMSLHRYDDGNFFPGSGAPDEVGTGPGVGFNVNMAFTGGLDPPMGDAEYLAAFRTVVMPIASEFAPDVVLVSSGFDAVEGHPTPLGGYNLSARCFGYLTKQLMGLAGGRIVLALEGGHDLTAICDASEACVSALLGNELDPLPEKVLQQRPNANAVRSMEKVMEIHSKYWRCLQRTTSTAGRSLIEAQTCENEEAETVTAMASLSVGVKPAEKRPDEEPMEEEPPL
Chain of Histone deacetylase 1 (Q13547 whole entry): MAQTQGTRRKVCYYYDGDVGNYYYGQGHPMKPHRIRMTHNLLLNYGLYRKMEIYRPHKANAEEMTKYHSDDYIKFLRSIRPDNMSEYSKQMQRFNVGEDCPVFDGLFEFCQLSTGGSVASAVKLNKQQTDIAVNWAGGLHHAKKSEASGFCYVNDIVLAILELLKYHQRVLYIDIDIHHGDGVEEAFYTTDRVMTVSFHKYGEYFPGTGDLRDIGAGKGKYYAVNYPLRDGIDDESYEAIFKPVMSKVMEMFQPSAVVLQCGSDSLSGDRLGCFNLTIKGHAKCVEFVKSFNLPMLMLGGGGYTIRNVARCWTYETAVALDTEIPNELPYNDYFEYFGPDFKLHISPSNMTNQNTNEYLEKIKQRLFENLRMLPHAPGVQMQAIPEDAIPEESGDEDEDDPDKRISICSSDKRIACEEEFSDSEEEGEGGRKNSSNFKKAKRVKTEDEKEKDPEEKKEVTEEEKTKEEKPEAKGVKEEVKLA
Chain of Histone deacetylase 2 (Q92769 whole entry): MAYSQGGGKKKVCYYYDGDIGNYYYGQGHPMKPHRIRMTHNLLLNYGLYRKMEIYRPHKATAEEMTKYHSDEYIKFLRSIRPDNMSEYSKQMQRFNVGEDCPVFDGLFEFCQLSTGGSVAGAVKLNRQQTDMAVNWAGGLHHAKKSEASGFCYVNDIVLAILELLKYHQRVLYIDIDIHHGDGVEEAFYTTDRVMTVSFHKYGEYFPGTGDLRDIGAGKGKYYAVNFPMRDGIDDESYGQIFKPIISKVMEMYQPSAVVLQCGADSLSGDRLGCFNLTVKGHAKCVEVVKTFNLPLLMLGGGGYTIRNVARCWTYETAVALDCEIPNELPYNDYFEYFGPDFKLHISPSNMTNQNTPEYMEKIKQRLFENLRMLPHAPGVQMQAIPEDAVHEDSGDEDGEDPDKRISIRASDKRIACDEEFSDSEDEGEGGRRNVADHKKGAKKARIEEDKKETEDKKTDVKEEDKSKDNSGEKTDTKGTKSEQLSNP

Row | GI50 [10] [nM] | GI50 [13] [nM] | SMILES | GI50 at 72 h [1] [nM] | IC50 [2] [nM] | IC50 [3] [nM] | IC50 [4] [nM] | IC50 [5] [nM] | IC50 [6] [nM] | IC50 [7] [nM] | GI50 at 72 h [8] [nM] | IC50 [9] [nM] | GI50 ([10]; Homo sapiens, DU-145, 72 h) [nM] | IC50 [11] [nM] | GI50 ([12]; Homo sapiens, MOLT-4, 72 h) [nM] | GI50 ([13]; Homo sapiens, U-937, 72 h) [nM] | IC50 [14] [nM] | IC50 [15] [nM] | GI50 [12] [nM]
1 | – | – | C/C=C1\NC(=O)[C@H]2CSSCC/C=C/[C@H](CC(=O)N[C@H](C(C)C)C(=O)N2)OC(=O)[C@H](C(C)C)NC1=O [ROMIDEPSIN] | 4.89 | > 10000 | 1050 | > 10000 | > 10000 | > 10000 | > 10000 | 5.39 | 11 | – | – | – | – | – | – | –
2 | – | – | CCCCCCCC(=O)SCC/C=C/[C@@H]1CC(=O)NCc2nc(cs2)C2=N[C@@](C)(CS2)C(=O)N[C@@H](C(C)C)C(=O)O1 [LARGAZOLE] | 39.7 | > 10000 | 69.8 | > 10000 | > 10000 | > 10000 | > 10000 | 82.5 | 2210 | 11 | > 10000 | 16.2 | 16.8 | 1010 | – | –
3 | – | – | C/C=C1\NC(=O)C(CS)NC(=O)[C@@H](C(C)C)NC(=O)C[C@@H](/C=C/CCS)OC(=O)[C@H](C(C)C)NC1=O (single isomer, unassigned) [FR-135313] | – | > 10000 | – | 9570 | > 10000 | 2360 | 1760 | – | 3.9 | – | 25 | – | – | 1.4 | 149 | –
4 | 1590 | 1460 | O=C(CCCCCCC(=O)Nc1ccccc1)NO [VORINOSTAT] | 1650 | – | – | – | – | – | – | 6080 | – | – | – | – | – | – | – | 542
